As to `Cc1nc2ccccc2n1CCc1nnc(S)n1N=Cc1ccccc1Cl`, the melting point (as a rule, the temperature of the solid-liquid transition) was 250 °C. The same measure for `O=c1nc2ccccc2nc(C(F)(F)F)c1NNc1cccnc1`: 157 °C; for `O=C(CBr)c1csc2ccccc12`: 138 to 139 °C; for `CNC(=O)Oc1ccccc1OC(CCl)OC` (stereo unspecified): 80 °C. Next, `CC(C)(C)OC(=O)NN1CCCC1C(=O)O` (stereo unspecified): 134 to 137 °C.

Turning to `N#Cc1ccccc1S(=O)(=O)Cl`, the melting point lay within 69 to 70 °C. Next, `O=C=Nc1ccc(-n2cccc2)cc1`: 65 to 66 °C; `O=C1c2ccccc2-c2ccc([N+](=O)[O-])cc21`: 222 to 223 °C; `CCOC(=O)Nc1ccc2cc3ccc4c(c3nc2c1)COC(=O)N4`: 235 °C. Next, `CC1C2CCCC(C2=NNC(N)=S)C2(O)CCCCC12` (stereo unspecified): 195 °C; `O=C(O)c1ccc(C(F)(F)F)nc1Cl`: 120 to 122 °C; `FCF`: -136 °C. `CC(C)Nc1nc(Cl)nc(NC(C)C)n1` came in with a melting point of 213 °C. `C/C(=N\CCc1ccccn1)c1c(O)c2ccccc2n(-c2ccccc2)c1=O` came in with a melting point of 219 to 220 °C. As to `CC(C(=O)NCCO)c1ccc(-c2ccccc2)c(F)c1` (stereo unspecified), the melting point was 94 to 96 °C. The same measure for `O=C(NC(CO)Cc1ccccc1)OCc1ccccc1` (stereo unspecified): 94 °C; for `O=C1C(=O)N(O)C2CCCCC2N1O` (stereo unspecified): 243 to 245 °C. The molecule `Clc1cc(Cl)nc(-c2ccccc2)n1` registered a melting point of 96.9 °C. The same measure for `ClCCCOc1ccccc1`: 12 °C; for `CSC(=NC#N)Nc1ccccc1`: 185 to 186 °C; for `O=C(CBr)c1ccc(OC(F)F)cc1`: 63 to 65 °C. The same measure for `Cc1nc(/C(C#N)=N/Nc2ccccc2[N+](=O)[O-])sc1/N=N/c1ccccc1`: 210 °C; for `CC(C)n1c(C(F)(F)F)nc2cc(C(=O)O)ccc21`: 172 to 176 °C. Regarding `COc1cc(O)cc(OC)c1OC`, the melting point lay in the range of 146 to 149 °C. On to `O=C(O)C=Cc1cccc(C=CC(=O)O)c1`, for which the melting point was determined as 280 °C. `CC(=O)c1cc(OC(F)(F)F)ccc1O` yielded a melting point of 30 °C. Next, `Cc1ccc(O)c(C(=O)C(F)(F)F)c1`: 41 °C; `Cn1nc(-c2cccs2)cc1CO`: 95 to 96 °C. `CC1(C)N=C(N)C(C)(C)N1O` returned a melting point of 225 to 228 °C.

Regarding `Cn1nc(-c2ccco2)cc1CO`, the melting point fell in the range of 83 to 85 °C. The molecule `O=C=Nc1ccc(F)c([N+](=O)[O-])c1` yielded a melting point of 27 to 28 °C. Next, `OCc1cccc(CN2CCCCC2)c1`: 67 to 69 °C. With `C1=COCCC1`, the melting point is -70 °C. The same measure for `Cc1cc(-c2onc(C)c2C(=O)Cl)no1`: 57 °C; for `CN(C)c1ccc(N=c2cc(-c3ccccc3)sc(-c3ccccc3)c2)cc1`: 165 °C. As to `CCOP(=S)(OCC)SC1OCCOC1SP(=S)(OCC)OCC` (stereo unspecified), the melting point is -2 °C. The same measure for `CCOC(=O)CC(=O)c1ccc([N+](=O)[O-])cc1`: 72 °C; for `COC(=O)c1cc2cc(Br)ccc2s1`: 110 to 111 °C. The same measure for `COc1cc(-c2nnc3n2N=C(c2ccccc2)CS3)cc(OC)c1OC`: 197 °C; for `CC(C)=C1C2CCC1c1ccccc12`: 90 °C; for `CCOc1ccc(-c2nnc3n2NC(C=Cc2ccccc2)S3)cc1` (stereo unspecified): 226 to 228 °C. Next, `Cc1ccccc1NC(=S)/C(=N\NC(=N)N)c1ccccc1`: 206 to 207 °C. `CSC(SC)SC` gave a melting point of 16 °C.

Regarding `O=S(=O)(Cl)c1ccc(Br)cc1C(F)(F)F`, the melting point was in the range of 62 to 63 °C.

As to `C/C(CCc1oc2ccc(Cl)cc2c1-c1ccc(C)o1)=N/O`, the melting point was 114 to 115 °C. `Clc1ccc2oc3c(Cl)c(Cl)c(Cl)c(Cl)c3c2c1` showed a melting point of 178 °C. The same measure for `COc1ccc2c(c1)C(=O)C2`: 55 °C.

For the molecule `ClCc1c(Cl)c(Cl)c(CCl)c(Cl)c1Cl`, the melting point was found to be 174 °C. The same measure for `FC12CC3CC(CC(C3)C1)C2`: 225 °C. For `Nc1ccc(N=Nc2ccccc2)c(N)n1`, the melting point is 139 °C.

On to `Cc1ccc(C(O)c2cc(C)ccc2O)cc1` (stereo unspecified), for which the melting point is 98 °C. Next, `Cc1nc(C2CCN(C(=O)OC(C)(C)C)CC2)sc1CO`: 150 to 153 °C; `O=C(O)c1ccc(OC(=O)c2ccccc2)cc1`: 89 °C; `O=[N+]([O-])c1cccc(CS(=O)(=O)Cl)c1`: 99 °C. The same measure for `NS(=O)(=O)C(F)(F)F`: 118 °C.

Take `OC(C(F)(F)F)(C(F)(F)F)C(O)(C(F)(F)F)C(F)(F)F`: the melting point lay in the range of 18 to 20 °C. Molecule `CNc1ccc(NCCO)c2c1C(=O)c1ccccc1C2=O` had a melting point of 187 °C.

In the case of `Cc1cccn2c(=O)c(C(=O)c3ccccc3)cnc12`, the melting point lay in the range of 146 to 147 °C. Next, `COc1c(Br)ccc2c1C(=O)C2`: 118 °C.

Regarding `C#CC(C1COC(C)(C)O1)N(O)Cc1ccccc1` (stereo unspecified), the melting point came out at 115 °C. The same measure for `CCCCCCN1CC(C(=O)OC)CC1=O` (stereo unspecified): 4 °C; for `O=C(O)c1cc(N(Cc2ccccc2O)Cc2cc(O)ccc2O)ccc1O`: 205 to 215 °C; for `CC(C)(C)C1=NN(c2ccccc2)C(=O)C1`: 110 °C. Next, `CCCCCC1=CCCC1`: -83 °C; `Cc1cccc(Cl)c1N`: 2 °C; `O=C(O)Cc1ccc(Cl)cc1C(F)(F)F`: 89 °C. Next, `C[Si](C)(C)Nc1ncnc2c1ncn2[Si](C)(C)C`: 86 °C. For the molecule `CC1NC2CCCCCCCC(=O)OC3CCC(CCCCCCCC(=O)OC1CC2)NC3C` (stereo unspecified), the melting point is 121 °C. `CCOC(=O)c1ccccc1N=C=O` registered a melting point of 29 °C.

As to `O=CNc1ccc(Cl)cc1C(=O)c1ccccc1`, the melting point fell in the range of 89 to 91 °C. The same measure for `c1ccc(-c2ccc(-c3nc4ccc(-c5ccccc5)cc4o3)cc2)cc1`: 199 to 201 °C; for `O=[N+]([O-])c1ccc(/C=C\c2ccccc2[N+](=O)[O-])cc1`: 138 to 139 °C. Next, `CCOC(=O)CNc1nc(N)n[nH]1`: 177 to 179 °C; `FC(F)(F)c1ccc(-n2ccnc2)cc1`: 71 to 73 °C; `COC(=O)C1(C(=O)OC)Cc2c(C)cccc2C(=O)O1`: 100 °C. `NC(=S)Nc1cccc(Br)c1` displayed a melting point of 150 to 151 °C. For `CCP(=S)(CC)CC`, the melting point came to 95 °C. On to `O=[N+]([O-])c1ccnc(Cl)c1`, for which the melting point worked out at 52 °C.

`CCOC(=O)C(C)(C)C1=CCC2(C)C(CCC3C2CCC2(C)C(OCc4ccccc4)CCC32)C1` (stereo unspecified): the melting point was 138 °C. Next, `Cc1ccc(Br)c(O)c1C(=O)O`: 57 °C; `NNC(=O)c1sc2ccccc2c1Cl`: 181 to 183 °C. `CC1(C)CC(=O)NC(=O)C1` displayed a melting point of 145 °C. The same measure for `Brc1ccc2[nH]cnc2c1`: 130 to 131 °C; for `O=c1[nH]c(=O)n(C2CC(O)C(CO)O2)cc1I` (stereo unspecified): 263 °C; for `Nc1ccc(C2=NN(c3ccccc3)C(=O)C2)cc1`: 160 °C. The same measure for `CCN(CC)C(=S)Cl`: 45 to 50 °C. The same measure for `CC1=C(C(=O)OCC(C)C)C(c2ccco2)NC(=O)N1` (stereo unspecified): 170 to 171 °C; for `CCCCCCCCOc1ccc(C(C)=O)cc1`: 30 to 32 °C. Molecule `CCCCCOc1ccc(C(=O)O)cc1` displayed a melting point of 123 to 127 °C. The same measure for `COc1cc(C(=O)Nc2ccc3nn(C4CCCCC4)nc3c2)cc(OC)c1OC`: 130 °C. The same measure for `O=[N+]([O-])c1c(Cl)c(Cl)cc(Cl)c1Cl`: 100 °C; for `CC1CCCCC1C` (stereo unspecified): -49.9 °C. With `O=C(CCl)NCc1ccc2c(c1)OCO2`, the melting point was 91.4 to 93.8 °C. As to `NNc1ncnc2c1cnn2-c1ccccc1`, the melting point is 190 to 191 °C. Next, `COC(=O)c1cncc(Br)c1`: 98 to 100 °C. As for `COc1ccc(-c2cc(NN=c3c(C(F)(F)F)nc4ccccc4[nH]c3=O)[nH]n2)cc1`, the melting point was determined as 154 °C. Consider `CCc1cccc(C(C)=O)c1`, for which the melting point was -20 °C. The same measure for `CC(=O)c1csc(-c2ccccc2)n1`: 84 °C; for `CNC(=O)ON=C(CSC)C(C)(C)C`: 57 °C. Regarding `ClCc1ccc(-c2ncccn2)cc1`, the melting point was in the range of 83 to 84.5 °C. Take `[O-][P+](c1ccccc1)(c1ccccc1)C1C2=C(OC3=C1CCc1ccccc13)c1ccccc1CC2`: the melting point was 215 °C. The molecule `Cc1nc(C)c(Cl)c(O)c1Cl` showed a melting point of 320 °C. Next, `O=C(O)CN(CCOCCOCCN(CC(=O)O)CC(=O)O)CC(=O)O`: 240 to 245 °C. In turn, `FC(F)(F)C(F)(F)C(F)(F)C(F)(F)C(F)(F)C(F)(F)C(F)(F)C(F)(F)I` came in with a melting point of 37 °C. `C=CC(=O)NC(O)C(=O)O` (stereo unspecified) displayed a melting point of 123 to 127 °C. Next, `c1cnc2c(ccc3nccnc32)n1`: 249 to 252 °C. Consider `Cn1c(=O)c(C2=NNC(=O)C2=NNc2cccc(Br)c2)c(O)c2ccccc21`, for which the melting point was found to be 240 °C. `O=P(OCC(Br)CBr)(OCC(Br)CBr)OCC(Br)CBr` (stereo unspecified) registered a melting point of 5.5 °C. For `O=[N+]([O-])c1ccc2c(c1)OCO2`, the melting point lay in the range of 145 to 149 °C. The same measure for `CC1CCC(C)(COC(=S)Nc2ccccc2)C1(C)C` (stereo unspecified): 101 °C. With `COC(=O)C(O)C(O)C(=O)OC` (stereo unspecified), the melting point is 59 °C.

Values taken from a melting point compilation (Tetko et al.).
